From publication PMC12257413, “Discovery of a Novel sp^3‑Rich M1 Positive Allosteric Modulators (PAMs) Chemotype via Scaffold Hopping” (ACS Medicinal Chemistry Letters, 2025)

Columns and labels:
[1] = Brain to plasma ratio (PK/PBL cassette); type: in vivo; details: rat
Protocol: In vivo DMPK experimental:
Determination of brain to plasma ratio:
Sample Analysis: Concentrations in plasma and brain homogenates were quantified by liquid chromatography tandem mass spectrometry (LC-MS/MS). Whole brains were homogenized in 3 mL of 70:30 IPA:water in a mini bead beater for 3 min, and centrifuged at 3,500 g for 5 min. 5 uL of the supernatant was diluted in 15 uL of blank plasma for quantification of the analytes. Plasma samples were centrifuged at 3,500 g for 5 min. A standard curve was generated by diluting the analytes DMSO stocks with blank plasma to obtain a final concentration of 10,000 ng/ml followed by a serial dilution down to 0.5 ng/ml. […]
Plasma and brain tissue samples originating from in vivo studies were analyzed by electrospray ionization using an AB Sciex Q-TRAP 5500 (Foster City, CA) that was coupled to a Shimadzu LC-20AD pump (Columbia, MD) and a Leap Technologies CTC PAL auto-sampler (Carrboro, NC). […]
transitioning to 10% B over 0.05 min. […] All data were analyzed using AB Sciex Analyst 1.5.1 software.
Brain plasma concentration ratio (Kp) was calculated by dividing brain concentration by plasma concentration for each animal. Unbound brain to unbound plasma concentration ratio (Kp,uu) is calculated using the following formula: Kp,uu = (Brain ng/g x brain fu)/(plasma ng/ml x plasma fu).

[2] = Plasma protein binding by equilibrium dialysis, human plasma; type: in vitro ADME; details: fraction unbound in human plasma
Protocol: for 2 seconds (excitation, 480 nm; emission, 530 nm), first add occurred by adding 20 µL of test compound to the cells, and the response was measured for 140 seconds. This is followed by second add; 10 µL (5X) of an EC20 concentration of ACh agonist was added to the cells, and the response of the cells was measured for 125 seconds. Immediately, the third add occurred by adding 12 ul assay buffer or 5X of an EC max concentration of ACh and the response of the cells was measured for 90 seconds. Assay buffer was added to the wells that incubated with compounds followed by EC20 concentration of ACh. […] Calcium fluorescence was recorded as fold over basal fluorescence and raw data were normalized to the maximal response to ACh agonist. Potency (EC50) and maximum response (% ACh Max) for compounds was determined using a four -parameter logist ical equation using GraphPad Prism (La Jolla, CA) or the Dotmatics software platform ( Woburn, MA) : […]
The protein binding of each compound was determined in plasma via equilibrium dialysis employing rapid equilibrium dialysis (RED) plates (ThermoFisher Scientific, Rochester, NY). […]
same manner as the plasma samples in the previously described plasma protein binding assay. Fraction unbound for both plasma and brain samples was determined using Equation 4. […]

Kp [1] | Human fuplasma [2] | SMILES
0.12 | 0.08 | Cn1cc(-c2ccc(Cc3cc(C(=O)N[C@H]4CCOC[C@@H]4O)nn3C3CCCC3)cc2)cn1 [17g]
0.63 | 0.01 | Cn1cc(-c2ccc(Cc3cc(C(=O)N[C@H]4CCCC[C@@H]4O)nn3C3CCCC3)cc2)cn1 [17k]
